Source: PubChem BioAssay (NCI)
“And” between values parts separate entries of the source, which are not always exact repeats. Identical values can stand only once.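 In this assay, cells in 96-well plates receive the compound at five concentrations for 48 hours. Endpoints are linearly interpolated between the surrounding concentrations. GI50 is the concentration that inhibits growth by half. Definition used: TGI = concentration required for complete inhibition of growth.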

Columns and labels:
Assay in all cases: inhibition of tumour cell growth, NCI panel, 48 h
[1] = system: 786-0 renal
[2] = system: A498 renal
[3] = system: A549 NSCLC
[4] = system: ACHN renal
[5] = system: BT-549 breast
[6] = system: CAKI-1 renal
[7] = system: CCRF-CEM leukemia
[8] = system: COLO 205 colon
[9] = system: DU-145 prostate
[10] = system: EKVX NSCLC
[11] = system: HCC-2998 colon
[12] = system: HCT-116 colon
[13] = system: HCT-15 colon
[14] = system: HL-60(TB) leukemia
[15] = system: HOP-62 NSCLC
[16] = system: HOP-92 NSCLC
[17] = system: HS 578T breast
[18] = system: HT29 colon
[19] = system: IGROV1 ovarian
[20] = system: K-562 leukemia
[21] = system: KM12 colon
[22] = system: LOX IMVI melanoma
[23] = system: M14 melanoma
[24] = system: MALME-3M melanoma
[25] = system: MCF7 breast
[26] = system: MDA-MB-231 breast
[27] = system: MDA-MB-435
[28] = system: MOLT-4 leukemia
[29] = system: NCI-H226 lung
[30] = system: NCI-H23 lung
[31] = system: NCI-H460 lung
[32] = system: NCI-H522 lung
[33] = system: NCI/ADR-RES ovarian
[34] = system: OVCAR-3 ovarian
[35] = system: OVCAR-4 ovarian
[36] = system: OVCAR-5 ovarian
[37] = system: OVCAR-8 ovarian
[38] = system: PC-3 prostate
[39] = system: RPMI-8226 leukemia
[40] = system: RXF 393 renal
[41] = system: SF-268 CNS
[42] = system: SF-295 CNS
[43] = system: SF-539 CNS
[44] = system: SK-MEL-2 melanoma
[45] = system: SK-MEL-28 melanoma
[46] = system: SK-MEL-5 melanoma
[47] = system: SK-OV-3 ovarian
[48] = system: SN12C renal
[49] = system: SNB-19 CNS
[50] = system: SNB-75 CNS
[51] = system: SR leukemia
[52] = system: SW-620 colon
[53] = system: T-47D breast
[54] = system: TK-10 renal
[55] = system: U251 CNS
[56] = system: UACC-257 melanoma
[57] = system: UACC-62 melanoma
[58] = system: UO-31 renal

## C[C@@]1(C(=O)Nc2ccc(F)nc2)CCCN1c1nc(Nc2cc(C3CC3)[nH]n2)c2cccn2n1
[1]
  GI50: 0.855 µM and 2.78 µM
  TGI: > 4.29 µM and 17.7 µM
[2]
  GI50: 0.194 µM and 0.927 µM
  TGI: 0.896 µM and 3.99 µM
[3]
  GI50: 0.259 µM and 0.384 µM
  TGI: > 10 µM and 22.9 µM
[4]
  GI50: 0.849 µM and 3.36 µM
  TGI: > 3.47 µM and 26.1 µM
[5]
  GI50: 0.832 µM and 3.06 µM
  TGI: > 2.46 µM and 14.2 µM
[6]
  GI50: 0.565 µM and 0.725 µM
  TGI: > 2.29 µM and 7 µM
[7]
  GI50: 0.378 µM and 0.574 µM
  TGI: > 100 µM
[8]
  GI50: 0.00929 µM and 0.0501 µM
  TGI: 0.236 µM and 0.321 µM
[9]
  GI50: 1.03 µM and 2.57 µM
  TGI: > 4 µM and 16.4 µM
[10]
  GI50: 0.417 µM and 1.21 µM
  TGI: > 4.23 µM and 17.1 µM
[11]
  GI50: 1.06 µM and 6.27 µM
  TGI: > 4.7 µM and 22.7 µM
[12]
  GI50: 0.314 µM and 0.575 µM
  TGI: > 2.33 µM and 15.9 µM
[13]
  GI50: 0.826 µM and 2.12 µM
  TGI: > 4.91 µM and 36.1 µM
[14]
  GI50: 0.00905 µM
  TGI: > 2.06 µM
[15]
  GI50: 0.404 µM and 1.71 µM
  TGI: > 5.17 µM and 15.4 µM
[16]
  GI50: 0.0119 µM and < 0.01 µM
  TGI: 0.672 µM and 0.2 µM
[17]
  GI50: 0.631 µM and 2.56 µM
  TGI: 3.19 µM and 8.61 µM
[18]
  GI50: 0.00443 µM and 0.0103 µM
  TGI: > 10 µM and 1.84 µM
[19]
  GI50: 0.514 µM and 1.71 µM
  TGI: > 3.87 µM and 16.5 µM
[20]
  TGI: > 10 µM and 56.6 µM
[21]
  GI50: 0.0533 µM and 0.125 µM
  TGI: 0.467 µM and 0.817 µM
[22]
  GI50: 0.346 µM and 1.1 µM
  TGI: > 2.04 µM and 12.2 µM
[23]
  GI50: 0.624 µM and 2.5 µM
  TGI: > 2.85 µM and 20.5 µM
[24]
  GI50: 11.7 µM
  TGI: > 4.48 µM and 29.4 µM
[25]
  GI50: 0.0445 µM and 0.0305 µM
  TGI: > 2.69 µM and 15.2 µM
[26]
  GI50: 0.786 µM and 3.11 µM
  TGI: > 10 µM and 15.1 µM
[27]
  TGI: > 5.42 µM and 23.6 µM
[28]
  GI50: 7.88 µM
  TGI: > 3.39 µM and 58.7 µM
[29]
  GI50: 0.248 µM and 0.651 µM
  TGI: 1.9 µM and 7.91 µM
[30]
  GI50: 0.391 µM and 0.794 µM
  TGI: > 4.93 µM and 19.8 µM
[31]
  GI50: 0.184 µM and 0.288 µM
  TGI: > 3.07 µM and 14.3 µM
[32]
  GI50: 1.19 µM and 4 µM
  TGI: > 2.54 µM and 20.9 µM
[33]
  GI50: 3.99 µM and 4.99 µM
  TGI: > 10 µM and 25.9 µM
[34]
  GI50: 8.73 µM
  TGI: > 3.4 µM and 22.3 µM
[35]
  GI50: 1.34 µM and 3.2 µM
  TGI: > 3.38 µM and 26.7 µM
[36]
  GI50: 0.225 µM and 0.455 µM
  TGI: > 2.77 µM and 15.5 µM
[37]
  GI50: 1.77 µM and 5.99 µM
  TGI: > 10 µM and 21.1 µM
[38]
  GI50: 0.989 µM and 1.41 µM
  TGI: > 7.62 µM and 23.5 µM
[39]
  GI50: 7.86 µM
  TGI: > 2.89 µM and 42.1 µM
[40]
  GI50: 0.396 µM and 1.44 µM
  TGI: 1.26 µM and 7.11 µM
[41]
  GI50: 0.631 µM and 2.56 µM
  TGI: > 2.57 µM and 15.6 µM
[42]
  GI50: 0.472 µM and 0.841 µM
  TGI: 3.2 µM and 6.78 µM
[43]
  GI50: 0.82 µM and 2.47 µM
  TGI: > 2.45 µM and 16.3 µM
[44]
  GI50: 0.631 µM and 2.64 µM
  TGI: > 2.29 µM and 18.8 µM
[45]
  GI50: 11.8 µM
  TGI: > 3.92 µM and 25.7 µM
[46]
  GI50: 3.82 µM
  TGI: > 2.15 µM and 17.5 µM
[47]
  GI50: 0.95 µM and 6.12 µM
  TGI: > 4.91 µM and 22.2 µM
[48]
  GI50: 0.877 µM and 3.55 µM
  TGI: > 6.62 µM and 18.3 µM
[49]
  GI50: 12.3 µM
  TGI: > 10 µM and 37.3 µM
[50]
  GI50: 0.138 µM and 1.24 µM
[51]
  TGI: > 2.53 µM and 15.7 µM
[52]
  GI50: 0.214 µM and 0.342 µM
  TGI: > 10 µM and 23.4 µM
[53]
  GI50: 1.2 µM and 7.47 µM
  TGI: > 3.53 µM and 27.2 µM
[54]
  GI50: 1.57 µM and 0.593 µM
  TGI: > 10 µM and 8.38 µM
[55]
  GI50: 1.74 µM and 4.92 µM
  TGI: > 7.39 µM and 20.6 µM
[56]
  GI50: 0.211 µM and 0.12 µM
  TGI: > 4.46 µM and 16.5 µM
[57]
  GI50: 0.388 µM and 2.1 µM
  TGI: > 2.12 µM and 18.7 µM
[58]
  GI50: 0.458 µM and 2.78 µM
  TGI: > 4.38 µM and 16 µM
